# Reference: patent US20230157945A1, “Nasal Hygiene Method and Formulation” (ACTUAL NATURAL HEALTH & WELLNESS PRODUCTS, INC., priority 2018, published 2023)
# Test system: human nasal passage
# Assay: testing of the nasal spray / nasal wash composition applied to the nasal passages
# Assay type: in vivo
# Settings: CBD at 0.3% by weight in the composition
# Description: A homogenized mixture of water, cannabinoid, an olfactory stimulant, and inorganic salt when applied to a nasal passage as a mist delivering 0.08 mL to 0.18 mL in each nostril is effective as a nasal wash. A solubilizing agent particularly suited for cannabinoids may also be added, such as those disclosed in U.S. patent application Ser. No. 17/527,465, filed Nov. 16, 2021.
# Practicing nasal hygiene by the use of the method of applying to a person's nostril a mist of nasal wash composition comprising the product of compounding under homogenizing conditions water, an amount of a source of chlorine dioxide, 0.1 to 1% by weight cannabinoid; 0.1 to 3% by weight of olfactory stimulant; and 0 to 5% by weight of at least one fixative compound; and blowing air out of the nostril. and composition of the invention, nasal irritation is reduced. […]
# It is a feature of the invention that the practice of nasal hygiene according to the invention requires only moderate and convenient quantities of the composition. It is sufficient for the user to place a convenient quantity of the composition, which can range from about 0.3 to 3 milliliters, into each nostril and retain it for a holding period which can range from a fraction of a minute to about ten minutes or as long as comfortable, and then remove it as by blowing the nose. […]
compound,measurement,value
"C=C(C)[C@@H]1CCC(C)=C[C@H]1c1c(O)cc(CCCCC)cc1O [CBD, Cannabidiol]",pain relief,effective pain relief
